The test system of one assay is ob/ob and db/db mice. The following applies: following 8 weeks of administration; cited from earlier work.
Assay [1] deals with recombinant human AMPK complex 1 (containing α1β1γ1) (Homo sapiens, UniProt Q13131+Q9Y478). As to the kind of experiment: […] (in vitro AMPK activation assay). It counts as biochemical. The following applies: for Emax: basal activity subtracted.
[2] abbreviates: recombinant human AMPK complex 1 (α1β1γ1), read-out: % Maximum AMP Activation of human AMPK Complex 1.

Each structure is given as a SMILES string. Like-named read-outs stand apart in the source and are kept apart here.

One may read the EC50 as the midpoint of the concentration-response curve.

Sequence of recombinant human AMPK complex 1 (containing α1β1γ1) (Q13131 whole entry): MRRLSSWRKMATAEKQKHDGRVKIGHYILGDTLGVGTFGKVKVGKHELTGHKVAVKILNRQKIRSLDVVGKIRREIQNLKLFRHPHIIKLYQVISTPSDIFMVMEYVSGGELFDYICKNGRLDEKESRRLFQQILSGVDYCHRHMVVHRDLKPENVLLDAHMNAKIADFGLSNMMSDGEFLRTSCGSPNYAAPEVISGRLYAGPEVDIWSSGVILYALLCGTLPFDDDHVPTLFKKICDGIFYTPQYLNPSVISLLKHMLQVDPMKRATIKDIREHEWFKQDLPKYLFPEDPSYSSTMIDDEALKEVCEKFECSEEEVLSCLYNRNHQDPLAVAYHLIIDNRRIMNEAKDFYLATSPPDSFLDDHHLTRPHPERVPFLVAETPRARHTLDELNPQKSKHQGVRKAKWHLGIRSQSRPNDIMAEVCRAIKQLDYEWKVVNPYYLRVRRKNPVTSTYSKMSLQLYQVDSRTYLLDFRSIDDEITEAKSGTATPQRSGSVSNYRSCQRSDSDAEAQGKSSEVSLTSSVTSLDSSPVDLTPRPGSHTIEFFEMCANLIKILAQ
Sequence of recombinant human AMPK complex 1 (containing α1β1γ1) (Q9Y478 whole entry): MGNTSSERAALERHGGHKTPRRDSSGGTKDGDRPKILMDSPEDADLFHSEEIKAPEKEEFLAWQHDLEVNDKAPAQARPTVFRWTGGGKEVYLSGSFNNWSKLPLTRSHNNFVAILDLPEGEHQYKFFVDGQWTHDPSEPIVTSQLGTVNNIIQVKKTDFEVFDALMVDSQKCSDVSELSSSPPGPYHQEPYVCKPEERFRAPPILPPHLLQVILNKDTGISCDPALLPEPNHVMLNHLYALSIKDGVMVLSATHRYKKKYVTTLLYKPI
Sequence of recombinant human AMPK complex 1 (containing α1β1γ1) (P54619 whole entry partner): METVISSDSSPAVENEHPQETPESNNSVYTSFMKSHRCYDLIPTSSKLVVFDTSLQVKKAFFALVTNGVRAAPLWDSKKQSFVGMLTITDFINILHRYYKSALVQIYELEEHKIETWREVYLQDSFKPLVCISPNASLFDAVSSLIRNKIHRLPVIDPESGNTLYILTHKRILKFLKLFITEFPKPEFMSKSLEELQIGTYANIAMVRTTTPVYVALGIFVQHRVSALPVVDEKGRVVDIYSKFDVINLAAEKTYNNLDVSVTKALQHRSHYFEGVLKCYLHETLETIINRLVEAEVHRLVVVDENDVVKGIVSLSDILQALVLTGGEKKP

`NC(=O)c1ncn([C@@H]2O[C@H](CO)[C@@H](O)[C@H]2O)c1N` [AICAR]: in the assay with ob/ob and db/db mice, the blood glucose reduction is recorded as 35%.

Turning to `Cc1ccc(Oc2nc3cc(-c4ccc(-c5ccccc5)s4)c(Cl)cc3[nH]2)cc1C(=O)O` [Example 359, 5-{6-Chloro-5-(5-phenyl-thiophen-2-yl)-1H-benzoimidazol-2-yloxy}-2-methyl-benzoic acid], the Emax in assay [1] (setting [2]) was more than 80%.

With `Cc1ccc(Oc2nc3cc(-c4ccc5c(c4)OCCO5)c(Cl)cc3[nH]2)cc1C(=O)O` [Example 360, 5-[6-Chloro-5-(2,3-dihydro-benzo[1,4]dioxin-6-yl)-1H-benzoimidazol-2-yloxy]-2-methyl-benzoic acid], the Emax in assay [1] (setting [2]) is more than 80%.

`Cc1ccc(Oc2nc3cc(-c4sc(-c5ccccc5)nc4C)c(Cl)cc3[nH]2)cc1C(=O)O` [Example 361, 5-[6-chloro-5-(4-methyl-2-phenyl-thiazol-5-yl)-1H-benzoimidazol-2-yloxy]-2-methyl-benzoic acid]: the Emax in assay [1] (setting [2]) is more than 80%.

With `Cc1ccc(Oc2nc3cc(-c4ccc5c(c4)N(C)CCN5C)c(Cl)cc3[nH]2)cc1C(=O)O` [Example 362, 5-[6-chloro-5-(1,4-dimethyl-1,2,3,4-tetrahydro-quinoxalin-6-yl)-1H-benzoimidazol-2-yloxy]-2-methyl-benzoic acid], the Emax in assay [1] (setting [2]) is more than 80%.

On to `Cc1ccc(Oc2nc3cc(-c4ccc(OC(F)(F)F)cc4)c(Cl)cc3[nH]2)cc1C(=O)O` [Example 363, Ammonium 5-({6-chloro-5-[4-(trifluoromethoxy)phenyl]-1H-benzimidazol-2-yl}oxy)-2-methylbenzoate], for which, in assay [1] (read-out: % Maximum AMP Activation of human AMPK Complex 1, recombinant human AMPK complex 1 (α1β1γ1)), the Emax was more than 80%.

`Cc1ccc(Oc2nc3cc(-c4ccc(-c5ccccc5)cc4)c(F)cc3[nH]2)cc1C(=O)O` [Example 365, 5-[(5-biphenyl-4-yl-6-fluoro-1H-benzimidazol-2-yl)oxy]-2-methylbenzoic acid]: the EC50 in assay [1] (recombinant human AMPK complex 1 (α1β1γ1), read-out: EC50) turned out to be 9 nM.

Values taken from US8394969B2, “Cyclic benzimidazole derivatives useful as anti-diabetic agents” (Merck Sharp & Dohme Corp., priority 2008, dated 2013).
